Key:
Assay type in all cases: functional
SF-268 = experiment: Growth inhibition of human SF-268 cells measured after 48 hrs by SRB assay
SF-295 = experiment: Growth inhibition of human SF-295 cells measured after 48 hrs by SRB assay
SF-539 = experiment: Growth inhibition of human SF-539 cells measured after 48 hrs by SRB assay
SNB-19 = experiment: Growth inhibition of human SNB-19 cells measured after 48 hrs by SRB assay
SNB-75 = experiment: Growth inhibition of human SNB-75 cells measured after 48 hrs by SRB assay
U-251 = experiment: Growth inhibition of human U-251 cells measured after 48 hrs by SRB assay
A549 = experiment: Growth inhibition of human A549 cells measured after 48 hrs by SRB assay
HOP-62 = experiment: Growth inhibition of human HOP-62 cells measured after 48 hrs by SRB assay
HOP-92 = experiment: Growth inhibition of human HOP-92 cells measured after 48 hrs by SRB assay
NCI-H226 = experiment: Growth inhibition of human NCI-H226 cells measured after 48 hrs by SRB assay
NCI-H23 = experiment: Growth inhibition of human NCI-H23 cells measured after 48 hrs by SRB assay
NCI-H322M = experiment: Growth inhibition of human NCI-H322M cells measured after 48 hrs by SRB assay
NCI-H460 = experiment: Growth inhibition of human NCI-H460 cells measured after 48 hrs by SRB assay
NCI-H522 = experiment: Growth inhibition of human NCI-H522 cells measured after 48 hrs by SRB assay
PC-3 = experiment: Growth inhibition of human PC-3 cells measured after 48 hrs by SRB assay
DU-145 = experiment: Growth inhibition of human DU-145 cells measured after 48 hrs by SRB assay
IGROV-1 = experiment: Growth inhibition of human IGROV-1 cells measured after 48 hrs by SRB assay
OVCAR-3 = experiment: Growth inhibition of human OVCAR-3 cells measured after 48 hrs by SRB assay
OVCAR-5 = experiment: Growth inhibition of human OVCAR-5 cells measured after 48 hrs by SRB assay
OVCAR-8 = experiment: Growth inhibition of human OVCAR-8 cells measured after 48 hrs by SRB assay
NCI/ADR-RES = experiment: Growth inhibition of human NCI/ADR-RES cells measured after 48 hrs by SRB assay
SK-OV-3 = experiment: Growth inhibition of human SK-OV-3 cells measured after 48 hrs by SRB assay
786-0 = experiment: Growth inhibition of human 786-0 cells measured after 48 hrs by SRB assay
A498 = experiment: Growth inhibition of human A498 cells measured after 48 hrs by SRB assay
ACHN = experiment: Growth inhibition of human ACHN cells measured after 48 hrs by SRB assay
CAKI-1 = experiment: Growth inhibition of human CAKI-1 cells measured after 48 hrs by SRB assay
RXF 393 = experiment: Growth inhibition of human RXF 393 cells measured after 48 hrs by SRB assay
SN12C = experiment: Growth inhibition of human SN12C cells measured after 48 hrs by SRB assay
TK-10 = experiment: Growth inhibition of human TK-10 cells measured after 48 hrs by SRB assay
UO-31 = experiment: Growth inhibition of human UO-31 cells measured after 48 hrs by SRB assay
CCRF-CEM = experiment: Growth inhibition of human CCRF-CEM cells measured after 48 hrs by SRB assay
HL-60 = experiment: Growth inhibition of human HL-60 cells measured after 48 hrs by SRB assay
K562 = experiment: Growth inhibition of human K562 cells measured after 48 hrs by SRB assay
MOLT-4 = experiment: Growth inhibition of human MOLT-4 cells measured after 48 hrs by SRB assay
SR = experiment: Growth inhibition of human SR cells measured after 48 hrs by SRB assay
COLO 205 = experiment: Growth inhibition of human COLO 205 cells measured after 48 hrs by SRB assay
HCC 2998 = experiment: Growth inhibition of human HCC 2998 cells measured after 48 hrs by SRB assay
HCT-116 = experiment: Growth inhibition of human HCT-116 cells measured after 48 hrs by SRB assay
HCT-15 = experiment: Growth inhibition of human HCT-15 cells measured after 48 hrs by SRB assay
HT-29 = experiment: Growth inhibition of human HT-29 cells measured after 48 hrs by SRB assay
KM12 = experiment: Growth inhibition of human KM12 cells measured after 48 hrs by SRB assay
SW-620 = experiment: Growth inhibition of human SW-620 cells measured after 48 hrs by SRB assay
LOX IMVI = experiment: Growth inhibition of human LOX IMVI cells measured after 48 hrs by SRB assay
Malme-3M = experiment: Growth inhibition of human Malme-3M cells measured after 48 hrs by SRB assay
M14 = experiment: Growth inhibition of human M14 cells measured after 48 hrs by SRB assay
MDA-MB-435 = experiment: Growth inhibition of human MDA-MB-435 cells measured after 48 hrs by SRB assay
SK-MEL-2 = experiment: Growth inhibition of human SK-MEL-2 cells measured after 48 hrs by SRB assay
SK-MEL-28 = experiment: Growth inhibition of human SK-MEL-28 cells measured after 48 hrs by SRB assay
SK-MEL-5 = experiment: Growth inhibition of human SK-MEL-5 cells measured after 48 hrs by SRB assay
UACC-257 = experiment: Growth inhibition of human UACC-257 cells measured after 48 hrs by SRB assay
UACC-62 = experiment: Growth inhibition of human UACC-62 cells measured after 48 hrs by SRB assay
MCF7 = experiment: Growth inhibition of human MCF7 cells measured after 48 hrs by SRB assay
MDA-MB-231 = experiment: Growth inhibition of human MDA-MB-231 cells measured after 48 hrs by SRB assay
Hs-578T = experiment: Growth inhibition of human Hs-578T cells measured after 48 hrs by SRB assay
BT-549 = experiment: Growth inhibition of human BT-549 cells measured after 48 hrs by SRB assay
T47D = experiment: Growth inhibition of human T47D cells measured after 48 hrs by SRB assay
MDA-MB-468 = experiment: Growth inhibition of human MDA-MB-468 cells measured after 48 hrs by SRB assay

C[C@]12CC[C@H](O)C=C1CC[C@@H]1[C@@H]2[C@@H](O)C[C@]2(C)[C@@H](c3ccc(=O)oc3)CC[C@]12O
GI50 (SF-268): 538 nM | GI50 (SF-295): 660 nM | GI50 (SF-539): 577 nM | GI50 (SNB-19): 3860 nM | GI50 (SNB-75): 1170 nM | GI50 (U-251): 1280 nM | GI50 (A549): 353 nM | GI50 (HOP-62): 454 nM | GI50 (HOP-92): 2080 nM | GI50 (NCI-H226): 1760 nM | GI50 (NCI-H23): 664 nM | GI50 (NCI-H322M): 1230 nM | GI50 (NCI-H460): 365 nM | GI50 (NCI-H522): 377 nM | GI50 (PC-3): 1330 nM | GI50 (DU-145): 478 nM | GI50 (IGROV-1): 1820 nM | GI50 (OVCAR-3): 531 nM | GI50 (OVCAR-5): 2360 nM | GI50 (OVCAR-8): 780 nM | GI50 (NCI/ADR-RES): 657 nM | GI50 (SK-OV-3): 2670 nM | GI50 (786-0): 541 nM | GI50 (A498): 362 nM | GI50 (ACHN): 351 nM | GI50 (CAKI-1): 436 nM | GI50 (RXF 393): 298 nM | GI50 (SN12C): 468 nM | GI50 (TK-10): 750 nM | GI50 (UO-31): 653 nM | GI50 (CCRF-CEM): 588 nM | GI50 (HL-60): 563 nM | GI50 (K562): 1390 nM | GI50 (MOLT-4): 369 nM | GI50 (SR): 1100 nM | GI50 (COLO 205): 3400 nM | GI50 (HCC 2998): 4320 nM | GI50 (HCT-116): 399 nM | GI50 (HCT-15): 808 nM | GI50 (HT-29): 689 nM | GI50 (KM12): 3200 nM | GI50 (SW-620): 559 nM | GI50 (LOX IMVI): 1030 nM | GI50 (Malme-3M): 1260 nM | GI50 (M14): 2570 nM | GI50 (MDA-MB-435): 1800 nM | GI50 (SK-MEL-2): 2330 nM | GI50 (SK-MEL-28): 2970 nM | GI50 (SK-MEL-5): 703 nM | GI50 (UACC-257): 2630 nM | GI50 (UACC-62): 1760 nM | GI50 (MCF7): 473 nM | GI50 (MDA-MB-231): 5420 nM | GI50 (Hs-578T): 337 nM | GI50 (BT-549): 371 nM | GI50 (T47D): 1540 nM | GI50 (MDA-MB-468): 3750 nM

CCO[C@@H]1C=C2CC[C@@H]3[C@H]([C@@H](O)C[C@]4(C)[C@@H](c5ccc(=O)oc5)CC[C@]34O)[C@@]2(C)CC1
GI50 (SF-268): 58 nM | GI50 (SF-295): 61 nM | GI50 (SF-539): 66 nM | GI50 (SNB-19): 347 nM | GI50 (SNB-75): 187 nM | GI50 (U-251): 151 nM | GI50 (A549): 40 nM | GI50 (HOP-62): 56 nM | GI50 (HOP-92): 153 nM | GI50 (NCI-H226): 181 nM | GI50 (NCI-H23): 86 nM | GI50 (NCI-H322M): 121 nM | GI50 (NCI-H460): 39 nM | GI50 (NCI-H522): 35 nM | GI50 (PC-3): 145 nM | GI50 (DU-145): 52 nM | GI50 (IGROV-1): 138 nM | GI50 (OVCAR-3): 59 nM | GI50 (OVCAR-5): 280 nM | GI50 (OVCAR-8): 165 nM | GI50 (NCI/ADR-RES): 91 nM | GI50 (SK-OV-3): 338 nM | GI50 (786-0): 71 nM | GI50 (A498): 39 nM | GI50 (ACHN): 37 nM | GI50 (CAKI-1): 57 nM | GI50 (RXF 393): 25 nM | GI50 (SN12C): 46 nM | GI50 (TK-10): 94 nM | GI50 (UO-31): 54 nM | GI50 (CCRF-CEM): 54 nM | GI50 (HL-60): 120 nM | GI50 (K562): 129 nM | GI50 (MOLT-4): 42 nM | GI50 (SR): 124 nM | GI50 (COLO 205): 401 nM | GI50 (HCC 2998): 537 nM | GI50 (HCT-116): 39 nM | GI50 (HCT-15): 86 nM | GI50 (HT-29): 78 nM | GI50 (KM12): 349 nM | GI50 (SW-620): 63 nM | GI50 (LOX IMVI): 137 nM | GI50 (Malme-3M): 145 nM | GI50 (M14): 232 nM | GI50 (MDA-MB-435): 178 nM | GI50 (SK-MEL-2): 234 nM | GI50 (SK-MEL-28): 296 nM | GI50 (SK-MEL-5): 72 nM | GI50 (UACC-257): 268 nM | GI50 (UACC-62): 145 nM | GI50 (MCF7): 55 nM | GI50 (MDA-MB-231): 588 nM | GI50 (Hs-578T): 44 nM | GI50 (BT-549): 56 nM | GI50 (T47D): 255 nM | GI50 (MDA-MB-468): 501 nM
